According to patent publication US11445724B2, “Insecticidal compounds” (SYNGENTA PARTICIPATIONS AG, priority 2013, dated 2022):

How the values were obtained:
Format in all cases: in vivo
[1] = test system: Diabrotica balteata (Corn root worm); test: Diabrotica balteata (Corn root worm) larval mortality, artificial diet in 24-well MTP; conditions: 120 h, application rate 200 ppm (concentration in well 18 ppm), L2 larvae, larval mortality after 5 days
[2] = test system: Myzus persicae (Green peach aphid); test: Myzus persicae (Green peach aphid) mortality, sprayed sunflower leaf discs; conditions: foliar, 144 h, 200 ppm spray on sunflower leaf discs, mixed ages, mortality 6 DAT
[3] = test system: Myzus persicae (Green peach aphid); test: Myzus persicae (Green peach aphid) mortality, test compounds mixed with Sucrose solution under Parafilm; conditions: 120 h, 12.5 ppm in Sucrose solution, infested pea seedlings on Parafilm, mortality 5 days after infestation
[4] = test system: Plutella xylostella (Diamond back moth); test: Plutella xylostella (Diamond back moth) larval mortality, artificial diet in 24-well MTP; conditions: 144 h, application rate 200 ppm (concentration in well 18 ppm), L2 larvae, larval mortality after 6 days
[5] = test system: Spodoptera littoralis (Egyptian cotton leafworm); test: Spodoptera littoralis (Egyptian cotton leafworm) mortality, sprayed cotton leaf discs; conditions: foliar, 72 h, 200 ppm spray on cotton leaf discs, L1 larvae, mortality 3 DAT
[6] = test system: Tetranychus urticae (Two-spotted spider mite); test: Tetranychus urticae (Two-spotted spider mite) mortality, sprayed bean leaf discs; conditions: foliar, 192 h, 200 ppm spray on bean leaf discs, mixed ages, egg, larval and adult mortality after 8 days
[7] = test system: Thrips tabaci (Onion thrips); test: Thrips tabaci (Onion thrips) mortality, sprayed sunflower leaf discs; conditions: foliar, 168 h, 200 ppm spray on sunflower leaf discs, mixed ages, mortality after 7 days

COc1c(NC(=O)c2ccncc2)cccc1C(=O)Nc1c(Br)cc(C(F)(C(F)(F)F)C(F)(F)F)cc1OC(F)F [Compound 3]
≥ 80%: pest or weed control at 200 ppm [1] | pest or weed control at 200 ppm [2] | pest or weed control at 12.5 ppm [3] | pest or weed control at 200 ppm [4] | pest or weed control at 200 ppm [5] | pest or weed control at 200 ppm [6] | pest or weed control at 200 ppm [7]

CCN(C(=O)c1ccncc1)c1cccc(C(=O)Nc2c(Br)cc(C(F)(C(F)(F)F)C(F)(F)F)cc2OC(F)F)c1OC [Compound 4]
≥ 80%: pest or weed control at 200 ppm [1] | pest or weed control at 200 ppm [2] | pest or weed control at 12.5 ppm [3] | pest or weed control at 200 ppm [4] | pest or weed control at 200 ppm [5] | pest or weed control at 200 ppm [6] | pest or weed control at 200 ppm [7]

N#Cc1ccc(C(=O)Nc2cccc(C(=O)Nc3c(Br)cc(C(F)(C(F)(F)F)C(F)(F)F)cc3OC(F)F)c2F)cc1 [Compound 5]
≥ 80%: pest or weed control at 200 ppm [1] | pest or weed control at 200 ppm [2] | pest or weed control at 12.5 ppm [3] | pest or weed control at 200 ppm [4] | pest or weed control at 200 ppm [5] | pest or weed control at 200 ppm [6] | pest or weed control at 200 ppm [7]

COc1c(NC(=O)c2ccc(C#N)cc2)cccc1C(=O)Nc1c(Br)cc(C(F)(C(F)(F)F)C(F)(F)F)cc1OC(F)F [Compound 6]
≥ 80%: pest or weed control at 200 ppm [1] | pest or weed control at 200 ppm [2] | pest or weed control at 12.5 ppm [3] | pest or weed control at 200 ppm [4] | pest or weed control at 200 ppm [5] | pest or weed control at 200 ppm [6] | pest or weed control at 200 ppm [7]

CCN(C(=O)c1ccc(C#N)cc1)c1cccc(C(=O)Nc2c(Br)cc(C(F)(C(F)(F)F)C(F)(F)F)cc2OC(F)F)c1OC [Compound 9]
≥ 80%: pest or weed control at 200 ppm [1] | pest or weed control at 200 ppm [2] | pest or weed control at 12.5 ppm [3] | pest or weed control at 200 ppm [4] | pest or weed control at 200 ppm [5] | pest or weed control at 200 ppm [6] | pest or weed control at 200 ppm [7]

CCN(C(=O)c1ccc(C#N)cc1)c1cccc(C(=O)Nc2c(Br)cc(C(F)(C(F)(F)F)C(F)(F)F)cc2OC(F)F)c1F [Compound 10]
≥ 80%: pest or weed control at 200 ppm [1] | pest or weed control at 200 ppm [2] | pest or weed control at 12.5 ppm [3] | pest or weed control at 200 ppm [4] | pest or weed control at 200 ppm [5] | pest or weed control at 200 ppm [6] | pest or weed control at 200 ppm [7]

CCN(C(=O)c1cc[n+]([O-])cc1)c1cccc(C(=O)Nc2c(Br)cc(C(F)(C(F)(F)F)C(F)(F)F)cc2OC(F)F)c1F [Compound 11, N-[3-[[2-bromo-6-(difluoromethoxy)-4-[1,2,2,2-tetrafluoro-1-(trifluoromethyl)ethyl]phenyl]carbamoyl]-2-fluoro-phenyl]-N-ethyl-1-oxido-pyridin-1-ium-4-carboxamide]
≥ 80%: pest or weed control at 200 ppm [1] | pest or weed control at 200 ppm [2] | pest or weed control at 12.5 ppm [3] | pest or weed control at 200 ppm [4] | pest or weed control at 200 ppm [5] | pest or weed control at 200 ppm [6] | pest or weed control at 200 ppm [7]

CCN(C(=O)c1cc[n+]([O-])cc1)c1cccc(C(=O)Nc2c(Br)cc(C(F)(C(F)(F)F)C(F)(F)F)cc2OC(F)F)c1OC [Compound 12]
≥ 80%: pest or weed control at 200 ppm [1] | pest or weed control at 200 ppm [2] | pest or weed control at 12.5 ppm [3] | pest or weed control at 200 ppm [4] | pest or weed control at 200 ppm [5] | pest or weed control at 200 ppm [6] | pest or weed control at 200 ppm [7]

N#Cc1ccc(C(=O)Nc2cccc(C(=O)Nc3c(Cl)cc(C(F)(C(F)(F)F)C(F)(F)F)cc3OC(F)F)c2F)cc1 [Compound 13]
≥ 80%: pest or weed control at 200 ppm [1] | pest or weed control at 200 ppm [2] | pest or weed control at 12.5 ppm [3] | pest or weed control at 200 ppm [4] | pest or weed control at 200 ppm [5] | pest or weed control at 200 ppm [6] | pest or weed control at 200 ppm [7]

COc1c(NC(=O)c2ccc(C#N)cc2)cccc1C(=O)Nc1c(Cl)cc(C(F)(C(F)(F)F)C(F)(F)F)cc1OC(F)F [Compound 14, N-[2-chloro-6-(difluoromethoxy)-4-[1,2,2,2-tetrafluoro-1-(trifluoromethyl)ethyl]phenyl]-3-[(4-cyanobenzoyl)amino]-2-methoxy-benzamide]
≥ 80%: pest or weed control at 200 ppm [1] | pest or weed control at 200 ppm [2] | pest or weed control at 12.5 ppm [3] | pest or weed control at 200 ppm [4] | pest or weed control at 200 ppm [5] | pest or weed control at 200 ppm [6] | pest or weed control at 200 ppm [7]

O=C(Nc1cccc(C(=O)Nc2c(Cl)cc(C(F)(C(F)(F)F)C(F)(F)F)cc2OC(F)F)c1F)c1ccncc1 [Compound 15]
≥ 80%: pest or weed control at 200 ppm [1] | pest or weed control at 200 ppm [2] | pest or weed control at 12.5 ppm [3] | pest or weed control at 200 ppm [4] | pest or weed control at 200 ppm [5] | pest or weed control at 200 ppm [6] | pest or weed control at 200 ppm [7]

COc1c(NC(=O)c2ccncc2)cccc1C(=O)Nc1c(Cl)cc(C(F)(C(F)(F)F)C(F)(F)F)cc1OC(F)F [Compound 16]
≥ 80%: pest or weed control at 200 ppm [1] | pest or weed control at 200 ppm [2] | pest or weed control at 12.5 ppm [3] | pest or weed control at 200 ppm [4] | pest or weed control at 200 ppm [5] | pest or weed control at 200 ppm [6] | pest or weed control at 200 ppm [7]

CCN(C(=O)c1ccc(C#N)cc1)c1cccc(C(=O)Nc2c(Cl)cc(C(F)(C(F)(F)F)C(F)(F)F)cc2OC(F)F)c1F [Compound 17]
≥ 80%: pest or weed control at 200 ppm [1] | pest or weed control at 200 ppm [2] | pest or weed control at 12.5 ppm [3] | pest or weed control at 200 ppm [4] | pest or weed control at 200 ppm [5] | pest or weed control at 200 ppm [6] | pest or weed control at 200 ppm [7]

CCN(C(=O)c1ccc(C#N)cc1)c1cccc(C(=O)Nc2c(Cl)cc(C(F)(C(F)(F)F)C(F)(F)F)cc2OC(F)F)c1OC [Compound 18]
≥ 80%: pest or weed control at 200 ppm [1] | pest or weed control at 200 ppm [2] | pest or weed control at 12.5 ppm [3] | pest or weed control at 200 ppm [4] | pest or weed control at 200 ppm [5] | pest or weed control at 200 ppm [6] | pest or weed control at 200 ppm [7]

CCN(C(=O)c1ccncc1)c1cccc(C(=O)Nc2c(Cl)cc(C(F)(C(F)(F)F)C(F)(F)F)cc2OC(F)F)c1F [Compound 19]
≥ 80%: pest or weed control at 200 ppm [1] | pest or weed control at 200 ppm [2] | pest or weed control at 12.5 ppm [3] | pest or weed control at 200 ppm [4] | pest or weed control at 200 ppm [5] | pest or weed control at 200 ppm [6] | pest or weed control at 200 ppm [7]

CCN(C(=O)c1ccncc1)c1cccc(C(=O)Nc2c(Cl)cc(C(F)(C(F)(F)F)C(F)(F)F)cc2OC(F)F)c1OC [Compound 20]
≥ 80%: pest or weed control at 200 ppm [1] | pest or weed control at 200 ppm [2] | pest or weed control at 12.5 ppm [3] | pest or weed control at 200 ppm [4] | pest or weed control at 200 ppm [5] | pest or weed control at 200 ppm [6] | pest or weed control at 200 ppm [7]

O=C(Nc1cccc(C(=O)Nc2c(Br)cc(C(F)(C(F)(F)F)C(F)(F)F)cc2OC(F)F)c1F)c1ccccc1Cl [Compound 21]
≥ 80%: pest or weed control at 200 ppm [1] | pest or weed control at 200 ppm [2] | pest or weed control at 12.5 ppm [3] | pest or weed control at 200 ppm [4] | pest or weed control at 200 ppm [5] | pest or weed control at 200 ppm [6] | pest or weed control at 200 ppm [7]

O=C(Nc1cccc(C(=O)Nc2c(Br)cc(C(F)(C(F)(F)F)C(F)(F)F)cc2OC(F)F)c1F)c1ccc([N+](=O)[O-])cc1 [Compound 22]
≥ 80%: pest or weed control at 200 ppm [1] | pest or weed control at 200 ppm [2] | pest or weed control at 12.5 ppm [3] | pest or weed control at 200 ppm [4] | pest or weed control at 200 ppm [5] | pest or weed control at 200 ppm [6] | pest or weed control at 200 ppm [7]

Cc1ccc(C(=O)Nc2cccc(C(=O)Nc3c(Br)cc(C(F)(C(F)(F)F)C(F)(F)F)cc3OC(F)F)c2F)cc1 [Compound 23]
≥ 80%: pest or weed control at 200 ppm [1] | pest or weed control at 200 ppm [2] | pest or weed control at 12.5 ppm [3] | pest or weed control at 200 ppm [4] | pest or weed control at 200 ppm [5] | pest or weed control at 200 ppm [6] | pest or weed control at 200 ppm [7]

O=C(Nc1cccc(C(=O)Nc2c(Br)cc(C(F)(C(F)(F)F)C(F)(F)F)cc2OC(F)F)c1F)c1cc(Cl)ccc1F [Compound 24]
≥ 80%: pest or weed control at 200 ppm [1] | pest or weed control at 200 ppm [2] | pest or weed control at 12.5 ppm [3] | pest or weed control at 200 ppm [4] | pest or weed control at 200 ppm [5] | pest or weed control at 200 ppm [6] | pest or weed control at 200 ppm [7]

O=C(Nc1cccc(C(=O)Nc2c(Br)cc(C(F)(C(F)(F)F)C(F)(F)F)cc2OC(F)F)c1F)c1ccc([N+](=O)[O-])cc1Cl [Compound 25]
≥ 80%: pest or weed control at 200 ppm [1] | pest or weed control at 200 ppm [2] | pest or weed control at 12.5 ppm [3] | pest or weed control at 200 ppm [4] | pest or weed control at 200 ppm [5] | pest or weed control at 200 ppm [6] | pest or weed control at 200 ppm [7]

O=C(Nc1cccc(C(=O)Nc2c(Br)cc(C(F)(C(F)(F)F)C(F)(F)F)cc2OC(F)F)c1F)c1ccc(OC(F)(F)F)cc1 [Compound 26]
≥ 80%: pest or weed control at 200 ppm [1] | pest or weed control at 200 ppm [2] | pest or weed control at 12.5 ppm [3] | pest or weed control at 200 ppm [4] | pest or weed control at 200 ppm [5] | pest or weed control at 200 ppm [6] | pest or weed control at 200 ppm [7]
